From patent EP4563146A1 (IRBM S.P.A., priority 2023, dated 2025) come the findings set out here.

One experiment has as its system ZIKV replicon. Kind of experiment: ZIKV replication inhibition assay (NanoLuc replicon in Vero cells). Conditions: Zika virus, Vero, 72 h, read-out: ZIKA Cell_Nanoluc. (A replicon is a self-replicating genome or part of one, used to study replication in cells.)
`Cn1ccc(CC(=O)Nc2cc(NC(=O)[N-]c3c[n+](Cc4ccccn4)no3)cc(C(F)(F)F)c2)n1` [Example 40]: the EC50 fell in the range of 1 to 20 µM.
With `Nc1ccc(CC(=O)Nc2cc(NC(=O)[N-]c3c[n+](Cc4ccccn4)no3)cc(C(F)(F)F)c2)cn1` [Example 42], the EC50 lay within 1 to 20 µM.
For `O=C(CS(=O)(=O)c1ccccc1)Nc1cc(NC(=O)[N-]c2c[n+](Cc3ccccn3)no2)cc(C(F)(F)F)c1` [Example 43], the EC50 was 1 to 20 µM.
Consider `O=C([N-]c1c[n+](Cc2ccccn2)no1)Nc1cc(NC(=O)c2ccon2)cc(C(F)(F)F)c1` [Example 44], for which the EC50 fell in the range of 1 to 20 µM.
The same measure, in the same setting: to `O=C([N-]c1c[n+](Cc2ccccn2)no1)Nc1cc(NC(=O)c2cnccn2)cc(C(F)(F)F)c1` [Example 45] belongs 1 to 20 µM; to `O=C(C#Cc1ccccc1)Nc1cc(NC(=O)[N-]c2c[n+](Cc3ccccn3)no2)cc(C(F)(F)F)c1` [Example 46], 1 to 20 µM; to `O=C([N-]c1c[n+](Cc2ccccn2)no1)Nc1cc(NC(=O)C2Cc3ccccc32)cc(C(F)(F)F)c1` (centres unmarked) [Example 47], 1 to 20 µM.
The same measure, in the same setting: to `CC(C)n1ccc(C(=O)Nc2cc(NC(=O)[N-]c3c[n+](Cc4ccccn4)no3)cc(C(F)(F)F)c2)n1` [Example 48] belongs 1 to 20 µM; to `CN1CC(C(=O)Nc2cc(NC(=O)[N-]c3c[n+](Cc4ccccn4)no3)cc(C(F)(F)F)c2)C1` [Example 49], 1 to 20 µM.
Turning to `O=C([N-]c1c[n+](Cc2ccccn2)no1)Nc1cc(NC(=O)C2CC2c2ccccc2)cc(C(F)(F)F)c1` (centres unmarked) [Example 50], the EC50 fell in the range of 0.1 to 1 µM.
Regarding `O=C(CC1CCC1)Nc1cc(NC(=O)[N-]c2c[n+](Cc3ccccn3)no2)cc(C(F)(F)F)c1` [Example 54], the EC50 is 1 to 20 µM.
As for `O=C([N-]c1c[n+](Cc2ccccn2)no1)Nc1cc(NC(=O)c2cc3n(n2)CCS(=O)(=O)C3)cc(C(F)(F)F)c1` [Example 64], the EC50 is over 20 µM.
Same read-out and setting: to `O=C(Cn1c(C(F)F)nc2ccccc21)Nc1cc(NC(=O)[N-]c2c[n+](Cc3ccccn3)no2)cc(C(F)(F)F)c1` [Example 65] belongs over 20 µM.
Take `O=C([N-]c1c[n+](Cc2ccccn2)no1)Nc1cc(NC(=O)C23CCC(O)(CC2)C3)cc(C(F)(F)F)c1` [Example 66]: the EC50 is over 20 µM.
For `Cc1cccc2c1OCC2C(=O)Nc1cc(NC(=O)[N-]c2c[n+](Cc3ccccn3)no2)cc(C(F)(F)F)c1` (centres unmarked) [Example 67], the EC50 fell in the range of 1 to 20 µM.
Still for that read-out and setting: to `O=C([N-]c1c[n+](Cc2ccccn2)no1)Nc1cc(NC(=O)C2CC(Cc3ccccc3)C2)cc(C(F)(F)F)c1` (centres unmarked) [Example 68] belongs 1 to 20 µM.
In the case of `O=C([N-]c1c[n+](Cc2ccccn2)no1)Nc1cc(NC(=O)[C@H]2C[C@](O)(c3ccccn3)C2)cc(C(F)(F)F)c1` [Example 69], the EC50 was over 20 µM.
Same read-out and setting: to `Cc1ccc(CN2CCC(C(=O)Nc3cc(NC(=O)[N-]c4c[n+](Cc5ccccn5)no4)cc(C(F)(F)F)c3)CC2)o1` [Example 70] belongs over 20 µM; to `N#Cc1ccn(C2(C(=O)Nc3cc(NC(=O)[N-]c4c[n+](Cc5ccccn5)no4)cc(C(F)(F)F)c3)CC2)n1` [Example 71], 1 to 20 µM.
In the case of `Cn1cnnc1COCC(=O)Nc1cc(NC(=O)[N-]c2c[n+](Cc3ccccn3)no2)cc(C(F)(F)F)c1` [Example 72], the EC50 was over 20 µM.
On the same count and under the same terms, to `O=C(CCOC1CCCC1)Nc1cc(NC(=O)[N-]c2c[n+](Cc3ccccn3)no2)cc(C(F)(F)F)c1` [Example 73] belongs 1 to 20 µM; to `O=C([N-]c1c[n+](Cc2ccccn2)no1)Nc1cc(NC(=O)c2cncn2C2CC2)cc(C(F)(F)F)c1` [Example 75], over 20 µM.
Still for that read-out and setting: to `O=C([N-]c1c[n+](Cc2ccccn2)no1)Nc1cc(NC(=O)C(F)(F)CN2CCCC2)cc(C(F)(F)F)c1` [Example 76] belongs over 20 µM; to `O=C([N-]c1c[n+](Cc2ccccn2)no1)Nc1cc(NC(=O)C2CN(C3CC3)C2)cc(C(F)(F)F)c1` [Example 77], over 20 µM; to `O=C([N-]c1c[n+](Cc2ccccn2)no1)Nc1cc(NC(=O)c2ccc3c(n2)CCO3)cc(C(F)(F)F)c1` [Example 79], 1 to 20 µM.
Still for that read-out and setting: to `O=C(CCCCS(=O)(=O)N1CCCCC1)Nc1cc(NC(=O)[N-]c2c[n+](Cc3ccccn3)no2)cc(C(F)(F)F)c1` [Example 82] belongs over 20 µM; to `O=C([N-]c1c[n+](Cc2ccccn2)no1)Nc1cc(NC(=O)C2(Oc3ccc(Cl)cc3)COC2)cc(C(F)(F)F)c1` [Example 83], 1 to 20 µM; to `O=C([N-]c1c[n+](Cc2ccccn2)no1)Nc1cc(NC(=O)C2CCCC3(CCOC3)O2)cc(C(F)(F)F)c1` (centres unmarked) [Example 84], 1 to 20 µM.
In the case of `O=C([N-]c1c[n+](Cc2ccccn2)no1)Nc1cc(NC(=O)C2CC(F)(F)C23CCC3)cc(C(F)(F)F)c1` (centres unmarked) [Example 85], the EC50 fell in the range of 1 to 20 µM.
Same read-out and setting: to `O=C([N-]c1c[n+](Cc2ccccn2)no1)Nc1cc(NC(=O)C2CS(=O)(=O)CCO2)cc(C(F)(F)F)c1` (centres unmarked) [Example 88] belongs over 20 µM.

The experiment is the same for the next values; noted with them: Zika virus, Vero, 72 h, read-out: ZIKA Cell_Nanoluc, Vero cells with stable ZIKV replicon, 72 h, Nano-Glo readout.
`Cc1nc(CC(=O)Nc2cc(NC(=O)[N-]c3c[n+](Cc4ccccn4)no3)cc(C(F)(F)F)c2)cs1` [Example 41, ((3-(2-(2-Methylthiazol-4-yl)acetamido)-5-(trifluoromethyl)phenyl)-carbamoyl)(3-(pyridin-2-ylmethyl)-1,2,3-oxadiazol-3-ium-5-yl)amide]: the EC50 was 1 to 20 µM.
As to `O=C([N-]c1c[n+](Cc2ccccn2)no1)Nc1cc(NC(=O)C23CC(C(=O)O)(C2)C3)cc(C(F)(F)F)c1` [Example 52, ((3-(3-Carboxybicyclo[1.1.1]pentane-1-carboxamido)-5-(trifluoromethyl)phenyl)-carbamoyl)(3-(pyridin-2-ylmethyl)-1,2,3-oxadiazol-3-ium-5-yl)amide], the EC50 lay within 1 to 20 µM.
With `O=C([N-]c1c[n+](Cc2ccccn2)no1)Nc1cc(NCCc2ccccc2)cc(C(F)(F)F)c1` [Example 53, ((3-(Phenethylamino)-5-(trifluoromethyl)-phenyl)carbamoyl)(3-(pyridin-2-ylmethyl)-1,2,3-oxadiazol-3-ium-5-yl)amide], the EC50 was in the range of 1 to 20 µM.
Same read-out and setting: to `NCc1ccc(C[n+]2cc([N-]C(=O)Nc3cc(NC(=O)Cc4ccccc4)cc(C(F)(F)F)c3)on2)cc1` [Example 56, (3-(4-(Aminomethyl)benzyl)-1,2,3-oxadiazol-3-ium-5-yl)((3-(2-phenylacetamido)-5-(trifluoromethyl)phenyl)carbamoyl)amide] belongs 1 to 20 µM; to `Cc1cc(NC(=O)Cc2ccccc2)cc(NC(=O)[N-]c2c[n+](Cc3ccccn3)no2)c1` [Example 57, ((3-Methyl-5-(2-phenylacetamido)phenyl)carbamoyl)(3-(pyridin-2-ylmethyl)-1,2,3-oxadiazol-3-ium-5-yl)amide], over 20 µM; to `O=C(Cc1ccccc1)Nc1cc(Cl)cc(NC(=O)[N-]c2c[n+](Cc3ccccn3)no2)c1` [Example 58, ((3-Chloro-5-(2-phenylacetamido)phenyl)carbamoyl)(3-(pyridin-2-ylmethyl)-1,2,3-oxadiazol-3-ium-5-yl)amide], 1 to 20 µM.
For `O=C(CC1CC2CC1C2)Nc1cc(NC(=O)[N-]c2c[n+](Cc3ccccn3)no2)cc(C(F)(F)F)c1` (centres unmarked) [Example 63, ((3-(2-(Bicyclo[2.1.1]hexan-2-yl)acetamido)-5-(trifluoromethyl)phenyl)carbamoyl)(3-(pyridin-2-ylmethyl)-1,2,3-oxadiazol-3-ium-5-yl)amide], the EC50 lay within 1 to 20 µM.
The same measure, in the same setting: to `CC(c1ccc(C(=O)Nc2cc(NC(=O)[N-]c3c[n+](Cc4ccccn4)no3)cc(C(F)(F)F)c2)cc1)S(N)(=O)=O` (centres unmarked) [Example 78, (3-(Pyridin-2-ylmethyl)-1,2,3-oxadiazol-3-ium-5-yl)((3-(4-(1-sulfamoylethyl)-benzamido)-5-(trifluoromethyl)phenyl)carbamoyl)amide] belongs over 20 µM; to `O=C([N-]c1c[n+](Cc2ccccn2)no1)Nc1cc(NC(=O)C2CCn3cncc3C2)cc(C(F)(F)F)c1` (centres unmarked) [Example 80, (3-(Pyridin-2-ylmethyl)-1,2,3-oxadiazol-3-ium-5-yl)((3-(5,6,7,8-tetrahydroimidazo [1,5-a]pyridine-7-carboxamido)-5-(trifluoromethyl)phenyl)carbamoyl)amide], over 20 µM; to `O=C([N-]c1c[n+](Cc2ccccn2)no1)Nc1cc(NC(=O)c2ccn3c2COCC3)cc(C(F)(F)F)c1` [Example 81, ((3-(3,4-Dihydro-1H-pyrrolo[2,1-c][1,4]oxazine-8-carboxamido)-5-(trifluoromethyl)-phenyl)carbamoyl)(3-(pyridin-2-ylmethyl)-1,2,3-oxadiazol-3-ium-5-yl)amide], 1 to 20 µM.
Regarding `O=C(CC1(N2CCCC2)COC1)Nc1cc(NC(=O)[N-]c2c[n+](Cc3ccccn3)no2)cc(C(F)(F)F)c1` [Example 86, (3-(Pyridin-2-ylmethyl)-1,2,3-oxadiazol-3-ium-5-yl)((3-(2-(3-(pyrrolidin-1-yl)oxetan-3-yl)acetamido)-5-(trifluoromethyl)phenyl)carbamoyl)amide], the EC50 is 1 to 20 µM.
On the same count and under the same terms, to `O=C([N-]c1c[n+](Cc2ccccn2)no1)Nc1cc(NC(=O)c2[nH]cc3c2CCC3)cc(C(F)(F)F)c1` [Example 87, (3-(Pyridin-2-ylmethyl)-1,2,3-oxadiazol-3-ium-5-yl)((3-(2,4,5,6-tetrahydrocyclopenta[c]pyrrole-1-carboxamido)-5-(trifluoromethyl)phenyl)-carbamoyl)amide] belongs over 20 µM.
On the same count and under the same terms, to `O=C(Cc1ccccc1)Nc1cc(NC(=O)[N-]c2c[n+](Cc3ccccn3)no2)cc(C2CC2)c1` [Example 89, ((3-Cyclopropyl-5-(2-phenylacetamido)phenyl)carbamoyl)(3-(pyridin-2-ylmethyl)-1,2,3-oxadiazol-3-ium-5-yl)amide] belongs 1 to 20 µM; to `O=C(Cc1cc(NC(=O)[N-]c2c[n+](Cc3ccccn3)no2)cc(C(F)(F)F)c1)NCc1ccccc1` [Example 90, ((3-(2-(Benzylamino)-2-oxoethyl)-5-(trifluoromethyl)phenyl)carbamoyl)(3-(pyridin-2-ylmethyl)-1,2,3-oxadiazol-3-ium-5-yl)amide], 1 to 20 µM.
